Where a SMILES comes first, the peptide text is derived from it.
Columns and labels:
[1] = tested on: endothelial cells, T cells, B cells, coronary artery smooth muscle cells and fibroblasts; experiment: Study CSM001-01-b: anti-proliferative activity; assay type: cell-based, human; conditions: DMSO
Procedure: (§1) All test compounds were dissolved in dimethyl sulfoxide (DMSO).

[2] = tested on: primary human cells (3C, 4H, LPS, SAg, BT, BF4T, BE3C, CASM3C, HDF3CGF, KF3CT, MyoF, /Mphg systems); experiment: Study CSM001-01-b: biomarker readouts in primary human cell systems, compounds in DMSO; assay type: cell-based
Procedure: (§2) Profiling was performed using the following processes:
as §1

[3] = tested on: primary human cells (3C, 4H, LPS, SAg, BT, BF4T, BE3C, CASM3C, HDF3CGF, KF3CT, MyoF, /Mphg systems); experiment: Study CSM002-01-b: biomarker readouts in primary human cell systems, compounds in PBS; assay type: cell-based; conditions: for TF / TM: hemostasis-related activity
Procedure: Profiling was performed using the following processes: […]

[4] = tested on: endothelial cells, T cells, coronary artery smooth muscle cells and fibroblasts; experiment: Study CSM002-01-b: anti-proliferative activity; assay type: cell-based, human; conditions: PBS
primary human cells [5] = experiment: Study CSM001-01-b: overt cytotoxicity (SRB, Alamar Blue); assay type: cell-based; conditions: DMSO, >50% reduction in cellular protein levels (SRB) and/or PBMC viability
Procedure: An annotated assay profile was prepared for each test agent. Biomarker readouts are annotated when two or more consecutive concentrations are changed in the same direction, relative to the vehicle control, outside of the significance envelope and with an effect size of at least 10% (more than 0.05 log ratio units). Biomarker activities are annotated as “modulated” when they are increased in some system(s) and decreased in other system(s). If applicable, a benchmark overlay was performed at the top non-cytotoxic concentration. Results of a similarity search (all test agents) and clustering (at least three test agents) were determined. […] A table of overtly cytotoxic test agents was also prepared which are test agents with a >50% reduction in cellular protein levels (sulforhodamine B, SRB) in one or more systems; and/or >50% reduction in PBMC viability. […]
Alamar Blue assays were used to determine the viability of non-adherent PBMCs in the assay systems, and are based on the conversion of resazurin to resorufin via the reduction reactions of metabolically active cells. […] Upon entering cells, resazurin is reduced to resorufin which produces very bright red fluorescence. Viable cells continuously convert resazurin to resorufin, thereby generating a quantitative measure of viability and cytotoxicity. The amount of fluorescence produced is proportional to the number of living cells. […]

[6] = tested on: primary human cells (HDFSAg, HDF3CGF, KF3CT, HDFLPS systems); experiment: Study CSM003-01-b: biomarker readouts in primary human cell systems, compounds in PBS; conditions: for pattern of immune responses in HDFSAg: HDFSAg system
Procedure: The following compounds were screened in the assay system at the noted concentrations to test for anti-proliferative, inflammation-related, immunomodulatory, tissue remodeling and hemostasis-related activities at the noted concentrations (Table 4). All test compounds were dissolved in phosphate buffered saline (PBS).
(§4) The following primary human cells were used as test systems: HDFSAg (dermal fibroblasts), HDF3CGF (dermal fibroblasts); KF3CT (keratinocytes+dermal fibroblasts) and HDFLPS (dermal fibroblasts+peripheral blood mononuclear cells).

primary human cells [7] = experiment: Aspartame second activity profile (FIG. 47): biomarker readouts; assay type: cell-based
Procedure: as §2
(§3) FIG. 47 provides a second activity profile of aspartame. The key activities of aspartame include anti-proliferative to B cells (grey arrow); inflammation-related activities: decreased sTNFα and IL1α; increased MCP-1 and VCAM-1; immunomodulatory activities: increased sIL-17A, sIL-17F, sIL-6, and CD40; and tissue remodeling activities: decreased MMP9; increased MMP3, αSMA, and Col-I.

primary human cells [8] = experiment: Aspartame first activity profile (FIG. 46): biomarker readouts; assay type: cell-based
Procedure: as §2
FIG. 46 provides a first activity profile of aspartame. The key activities of aspartame include inflammation-related activities: decreased MCP-1 and SAA; increased IL-8, IL-1α and VCAM-1; immunomodulatory activities: decreased sIL-2; increased sIgG and sIL-6; modulated CD69; and tissue remodeling activities: decreased MMP-9; increased Collagen-I and tPA; modulated PAI-I.

B cells = experiment: Aspartame second activity profile (FIG. 47): anti-proliferative activity; assay type: cell-based, human
Procedure: as §2, §3

fibroblasts = experiment: Study CSM003-01-b: anti-proliferative activity; assay type: cell-based, human; conditions: PBS, anhydrous
Procedure: All test compounds were dissolved in phosphate buffered saline (PBS).
as §4

Compound: O=C(O)c1cc(O)c(O)c(O)c1 [gallic acid, 3,4,5-trihydroxy benzoic acid]
- proliferation of T cells [1]: antiproliferative
- proliferation of coronary artery smooth muscle cells [1]: antiproliferative
- proliferation of endothelial cells [1]: antiproliferative
- proliferation of fibroblasts [1]: antiproliferative
- M-CSF ([2]; immunomodulatory activity): decreased
- sIL-2 ([2]; immunomodulatory activity): decreased
- sIL-10 ([2]; immunomodulatory activity): increased
- sIL-17A ([2]; immunomodulatory activity): decreased
- Eotaxin-3 ([2]; inflammation-related activity): decreased
- I-TAC ([2]; inflammation-related activity): decreased
- ICAM-1 ([2]; inflammation-related activity): decreased
- IL-1α ([2]; inflammation-related activity): decreased
- IL-8 ([2]; inflammation-related activity): increased
- IP-10 ([2]; inflammation-related activity): decreased
- MIG ([2]; inflammation-related activity): decreased
- MIP-1 ([2]; inflammation-related activity): increased
- SAA ([2]; inflammation-related activity): decreased
- VCAM-1 ([2]; inflammation-related activity): modulated
- sTNFα ([2]; inflammation-related activity): decreased
- Collagen-III ([2]; tissue remodeling activity): increased
- Collagen-IV ([2]; tissue remodeling activity): increased
- EGFR ([2]; tissue remodeling activity): increased
- Keratin 8/18 ([2]; tissue remodeling activity): decreased
- MMP-1 ([2]; tissue remodeling activity): increased
- MMP-3 ([2]; tissue remodeling activity): increased
- MMP-9 ([2]; tissue remodeling activity): decreased
- PAI-I ([2]; tissue remodeling activity): modulated
- bFGF ([2]; tissue remodeling activity): decreased
- tPA ([2]; tissue remodeling activity): increased
- α-SMA ([2]; tissue remodeling activity): increased
- M-CSF ([3]; immunomodulatory activity): modulated
- IL-8 ([3]; inflammation-related activity): increased
- IP-10 ([3]; inflammation-related activity): increased
- ITAC ([3]; inflammation-related activity): decreased
- VCAM-1 ([3]; inflammation-related activity): decreased
- sPGE2 ([3]; inflammation-related activity): increased
- sTNFα ([3]; inflammation-related activity): decreased
- MMP-9 ([3]; tissue remodeling activity): increased
- tPA ([3]; tissue remodeling activity): increased
- uPA ([3]; tissue remodeling activity): increased
- αSMA ([3]; tissue remodeling activity): increased
- proliferation of T cells [4]: anti-proliferative
- proliferation of coronary artery smooth muscle cells [4]: anti-proliferative
- proliferation of endothelial cells [4]: anti-proliferative
- proliferation of fibroblasts [4]: anti-proliferative

Compound: CC(=O)N[C@@H](CS)C(=O)O [N-acetyl-L-cysteine]
- overt cytotoxicity (primary human cells [5]): overtly toxic in multiple systems at the top two concentrations tested
- CD40 ([2]; immunomodulatory activity): decreased
- sIL-17A ([2]; immunomodulatory activity): decreased
- Eotaxin-3 ([2]; inflammation-related activity): decreased
- IL-6 ([2]; inflammation-related activity): increased
- IL-8 ([2]; inflammation-related activity): modulated
- IP-10 ([2]; inflammation-related activity): decreased
- MIG ([2]; inflammation-related activity): decreased
- sTNFα ([2]; inflammation-related activity): decreased
- Collagen-I ([2]; tissue remodeling activity): increased
- EGFR ([2]; tissue remodeling activity): decreased
- Keratin 8/18 ([2]; tissue remodeling activity): increased
- MMP-1 ([2]; tissue remodeling activity): increased
- MMP-3 ([2]; tissue remodeling activity): increased
- MMP-9 ([2]; tissue remodeling activity): modulated
- PAI-I ([2]; tissue remodeling activity): increased
- TIMP-I ([2]; tissue remodeling activity): increased
- tPA ([2]; tissue remodeling activity): increased
- uPAR ([2]; tissue remodeling activity): increased
- Esel ([3]; inflammation-related activity): decreased
- IL1α ([3]; inflammation-related activity): decreased
- IL-6 ([3]; inflammation-related activity): decreased
- IL-8 ([3]; inflammation-related activity): decreased
- IP-10 ([3]; inflammation-related activity): decreased
- ITAC ([3]; inflammation-related activity): decreased
- sTNFα ([3]; inflammation-related activity): decreased
- Col-I ([3]; tissue remodeling activity): increased
- EGFR ([3]; tissue remodeling activity): decreased
- MMP-3 ([3]; tissue remodeling activity): increased
- tPA ([3]; tissue remodeling activity): modulated
- αSMA ([3]; tissue remodeling activity): increased

Compound: CC(O)CC(=O)O (stereo not drawn) [beta hydroxybutyric acid]
- overt cytotoxicity (primary human cells [5]): overtly toxic in multiple systems at the top concentration tested
- proliferation of T cells [1]: anti-proliferative
- proliferation of endothelial cells [1]: anti-proliferative
- M-CSF ([2]; immunomodulatory activity): increased
- sIgG ([2]; immunomodulatory activity): decreased
- ICAM-1 ([2]; inflammation-related activity): increased
- IL-1α ([2]; inflammation-related activity): increased
- IL-8 ([2]; inflammation-related activity): decreased
- MIG ([2]; inflammation-related activity): decreased
- VCAM-1 ([2]; inflammation-related activity): decreased
- Collagen-I ([2]; tissue remodeling activity): increased
- EGFR ([2]; tissue remodeling activity): increased
- MMP-9 ([2]; tissue remodeling activity): modulated
- PAI-I ([2]; tissue remodeling activity): modulated
- tPA ([2]; tissue remodeling activity): increased
- uPA ([2]; tissue remodeling activity): increased
- TF [3]: increased
- TM [3]: increased
- CD40 ([3]; immunomodulatory activity): increased
- CD69 ([3]; immunomodulatory activity): increased
- M-CSF ([3]; immunomodulatory activity): increased
- sIL-6 ([3]; immunomodulatory activity): increased
- IL1α ([3]; inflammation-related activity): decreased
- IL-8 ([3]; inflammation-related activity): decreased
- MCP-1 ([3]; inflammation-related activity): increased
- sTNFα ([3]; inflammation-related activity): decreased
- Col-I ([3]; tissue remodeling activity): increased
- MMP-3 ([3]; tissue remodeling activity): increased
- MMP-9 ([3]; tissue remodeling activity): decreased
- αSMA ([3]; tissue remodeling activity): increased
- proliferation of T cells [4]: anti-proliferative
- proliferation of coronary artery smooth muscle cells [4]: anti-proliferative
- proliferation of endothelial cells [4]: anti-proliferative

Compound: O.O.O.O.O.O.[Cl-].[Cl-].[Sr+2] [Strontium chloride hexahydrate]
- pattern of immune responses in HDFSAg [6]: enhanced immune responses
- sIL-6 ([6]; immunomodulatory activity): increased
- sIL-10 ([6]; immunomodulatory activity): increased
- sIL-17A ([6]; immunomodulatory activity): increased
- sIL-17F ([6]; immunomodulatory activity): increased

Compound: COC(=O)[C@H](Cc1ccccc1)NC(=O)[C@@H](N)CC(=O)O [aspartame] (H-Asp-Phe-OMe)
- CD40 (primary human cells [7]; immunomodulatory activity): increased
- sIL-6 (primary human cells [7]; immunomodulatory activity): increased
- sIL-17A (primary human cells [7]; immunomodulatory activity): increased
- sIL-17F (primary human cells [7]; immunomodulatory activity): increased
- IL1α (primary human cells [7]; inflammation-related activity): decreased
- MCP-1 (primary human cells [7]; inflammation-related activity): increased
- VCAM-1 (primary human cells [7]; inflammation-related activity): increased
- sTNFα (primary human cells [7]; inflammation-related activity): decreased
- Col-I (primary human cells [7]; tissue remodeling activity): increased
- MMP3 (primary human cells [7]; tissue remodeling activity): increased
- MMP9 (primary human cells [7]; tissue remodeling activity): decreased
- αSMA (primary human cells [7]; tissue remodeling activity): increased
- CD69 (primary human cells [8]; immunomodulatory activity): modulated
- sIL-2 (primary human cells [8]; immunomodulatory activity): decreased
- sIL-6 (primary human cells [8]; immunomodulatory activity): increased
- sIgG (primary human cells [8]; immunomodulatory activity): increased
- IL-1α (primary human cells [8]; inflammation-related activity): increased
- IL-8 (primary human cells [8]; inflammation-related activity): increased
- MCP-1 (primary human cells [8]; inflammation-related activity): decreased
- SAA (primary human cells [8]; inflammation-related activity): decreased
- VCAM-1 (primary human cells [8]; inflammation-related activity): increased
- Collagen-I (primary human cells [8]; tissue remodeling activity): increased
- MMP-9 (primary human cells [8]; tissue remodeling activity): decreased
- PAI-I (primary human cells [8]; tissue remodeling activity): modulated
- tPA (primary human cells [8]; tissue remodeling activity): increased
- proliferation of B cells (B cells): anti-proliferative

Compound: O=[N+]([O-])[O-].O=[N+]([O-])[O-].[Sr+2] [Strontium nitrate, Strontium Nitrate]
- proliferation of fibroblasts (fibroblasts): anti-proliferative to fibroblasts at the top concentration only
- proliferation of B cells [1]: anti-proliferative
- proliferation of T cells [1]: anti-proliferative
- proliferation of coronary artery smooth muscle cells [1]: anti-proliferative
- proliferation of endothelial cells [1]: anti-proliferative
- proliferation of fibroblasts [1]: anti-proliferative
- TF ([2]; hemostasis-related activity): increased
- TM ([2]; hemostasis-related activity): increased
- HLA-DR ([2]; immunomodulatory activity): decreased
- M-CSF ([2]; immunomodulatory activity): increased
- sIL-6 ([2]; immunomodulatory activity): decreased
- sIL-17A ([2]; immunomodulatory activity): decreased
- sIL-17F ([2]; immunomodulatory activity): decreased
- sIgG ([2]; immunomodulatory activity): decreased
- Eotaxin-3 ([2]; inflammation-related activity): decreased
- I-TAC ([2]; inflammation-related activity): decreased
- IL-1α ([2]; inflammation-related activity): decreased
- IL-8 ([2]; inflammation-related activity): decreased
- IP-10 ([2]; inflammation-related activity): decreased
- MCP-1 ([2]; inflammation-related activity): decreased
- SAA ([2]; inflammation-related activity): decreased
- VCAM-1 ([2]; inflammation-related activity): decreased
- sPGE2 ([2]; inflammation-related activity): increased
- sTNFα ([2]; inflammation-related activity): decreased
- Keratin 8/18 ([2]; tissue remodeling activity): increased
- MMP-1 ([2]; tissue remodeling activity): decreased
- MMP-3 ([2]; tissue remodeling activity): increased
- MMP-9 ([2]; tissue remodeling activity): decreased
- PAI-I ([2]; tissue remodeling activity): decreased
- TIMP-2 ([2]; tissue remodeling activity): increased
- uPAR ([2]; tissue remodeling activity): decreased
- pattern of immune responses in HDFSAg [6]: enhanced immune responses
- sIL-2 ([6]; immunomodulatory activity): increased
- sIL-6 ([6]; immunomodulatory activity): increased
- sIL-10 ([6]; immunomodulatory activity): increased
- MCP-1 ([6]; inflammation-related activity): decreased
- TF [3]: decreased
- TM [3]: increased
- CD40 ([3]; immunomodulatory activity): increased
- M-CSF ([3]; immunomodulatory activity): decreased
- ICAM-1 ([3]; inflammation-related activity): increased
- IL1α ([3]; inflammation-related activity): modulated
- IP-10 ([3]; inflammation-related activity): decreased
- MIP-1 ([3]; inflammation-related activity): decreased
- VCAM-1 ([3]; inflammation-related activity): increased
- sTNFα ([3]; inflammation-related activity): decreased
- Ker 8/18 ([3]; tissue remodeling activity): increased
- MMP-1 ([3]; tissue remodeling activity): increased
- MMP-9 ([3]; tissue remodeling activity): increased
- tPA ([3]; tissue remodeling activity): increased
- uPAR ([3]; tissue remodeling activity): increased
- proliferation of coronary artery smooth muscle cells [4]: anti-proliferative
